# Experimental data taken from ChEMBL document CHEMBL1150189, “Determination of cardenolides in hairy root cultures of Digitalis lanata by enzyme-linked immunosorbent assay” (J Nat Prod, 1990).
# Species: Mus musculus
# Experiment: Binding affinity to mouse Monoclonal antibody DIG 64.2B.5 by ELISA relative to digoxin
row,SMILES,Ratio IC50
1,C[C@@H]1CC[C@@]2(OC1)O[C@H]1[C@@H](O)[C@H]3[C@@H]4CC[C@H]5C[C@@H](O[C@@H]6O[C@H](CO)[C@H](O[C@@H]7O[C@H](CO)C(O)[C@H](O[C@@H]8OC[C@@H](O)[C@H](O)[C@H]8O)[C@H]7O[C@@H]7O[C@H](CO)[C@H](O)[C@H](O[C@@H]8O[C@H](CO)[C@@H](O)[C@H](O)[C@H]8O)[C@H]7O)[C@H](O)[C@H]6O)[C@H](O)C[C@]5(C)[C@H]4CC[C@]3(C)[C@H]1[C@@H]2C (stereo partly specified),> 6e+06
2,C[C@H]1O[C@@H](O[C@H]2CC[C@@]3(C)[C@H](CC[C@@H]4[C@@H]3C[C@@H](O)[C@]3(C)[C@@H](C5=CC(=O)OC5)CC[C@]43O)C2)C[C@H](O)[C@@H]1O[C@H]1C[C@H](O)[C@H](O[C@H]2C[C@H](O)[C@H](O[C@@H]3O[C@H](CO)[C@@H](O)[C@H](O)[C@H]3O)[C@@H](C)O2)[C@@H](C)O1,1.8
3,C[C@H]1OC(O)C[C@H](O)[C@@H]1O (stereo partly specified),> 1.2e+08
4,C[C@H]1O[C@@H](O[C@H]2[C@@H](O)C[C@H](O[C@H]3[C@@H](O)C[C@H](O[C@H]4CC[C@@]5(C)[C@H](CC[C@@H]6[C@@H]5CC[C@]5(C)[C@@H](C7=CC(=O)OC7)[C@@H](O)C[C@]65O)C4)O[C@@H]3C)O[C@@H]2C)C[C@H](O)[C@@H]1O,46
5,C[C@]12CC[C@H](O)C[C@H]1CC[C@@H]1[C@@H]2CC[C@]2(C)[C@@H](C3=CC(=O)OC3)[C@@H](O)C[C@]12O,> 540000
6,C[C@]12CC[C@H](O)C[C@H]1CC[C@@H]1[C@@H]2C[C@@H](O)[C@]2(C)[C@@H](C3=CC(=O)OC3)CC[C@]12O,1.2
7,C[C@@H]1O[C@@H](O[C@H]2C[C@@H](O)[C@]3(CO)[C@H]4[C@H](O)C[C@]5(C)[C@@H](C6=CC(=O)OC6)CC[C@]5(O)[C@@H]4CC[C@]3(O)C2)[C@H](O)[C@H](O)[C@H]1O,> 6e+06
8,CC(=O)O[C@H]1C[C@H](O[C@H]2[C@@H](O)C[C@H](O[C@H]3[C@@H](O)C[C@H](O[C@H]4CC[C@@]5(C)[C@H](CC[C@@H]6[C@@H]5C[C@@H](O)[C@]5(C)[C@@H](C7=CC(=O)OC7)CC[C@]65O)C4)O[C@@H]3C)O[C@@H]2C)O[C@H](C)[C@H]1O[C@@H]1O[C@H](CO)[C@@H](O)[C@H](O)[C@H]1O,1.2
9,C[C@H]1O[C@@H](O[C@H]2[C@@H](O)C[C@H](O[C@H]3[C@@H](O)C[C@H](O[C@H]4CC[C@@]5(C)[C@H](CC[C@@H]6[C@@H]5CC[C@]5(C)[C@@H](C7=CC(=O)OC7)CC[C@]65O)C4)O[C@@H]3C)O[C@@H]2C)C[C@H](O)[C@@H]1O,2800
10,C[C@]12CC[C@H](O)C[C@H]1CC[C@@H]1[C@@H]2CC[C@]2(C)[C@@H](C3=CC(=O)OC3)CC[C@]12O,23000
11,CO[C@@H]1[C@@H](O)[C@H](O[C@H]2CC[C@@]3(C)[C@H](CC[C@@H]4[C@@H]3CC[C@]3(C)[C@@H](C5=CC(=O)OC5)[C@@H](O)C[C@]43O)C2)O[C@H](C)[C@@H]1O[C@@H]1O[C@H](CO)[C@@H](O)[C@H](O)[C@H]1O,16000
